Target: human FXR (NR1H4) (Homo sapiens (Human), UniProt Q96RI1)
Assay: Human FXR (NR1H4) Assay (Gal4 promoter driven luciferase reporter, CHO cells)
Assay type: cell-based
Conditions: CHO reporter cells expressing human NR1H4; for EC50: 22 hours incubation, potency ranges; for Efficacy (%): normalized to CDCA set as 100%
Excerpt: Human FXR (NR1H4) Assay Determination of a ligand mediated Gal4 promoter driven transactivation to quantify ligand binding mediated activation of FXR. FXR Reporter Assay kit purchased from Indigo Bioscience (Catalogue number: IB00601) to determine the potency and efficacy of compound developed by Enanta that can induce FXR activation. The principle application of this reporter assay system is to quantify functional activity of human FXR. The assay utilizes non-human mammalian cells, CHO (Chinese hamster ovary) cells engineered to express human NR1H4 protein (referred to as FXR). Reporter cells also incorporate the cDNA encoding beetle luciferase which catalyzes the substrates and yields photon emission. Luminescence intensity of the reaction is quantified using a plate-reading luminometer, Envision. Reporter Cells include the luciferase reporter gene functionally linked to an FXR responsive promoter. Thus, quantifying changes in luciferase expression in the treated reporter cells provides a sensitive surrogate measure of the changes in FXR activity. […] The assay is according to the manufacturer's instructions. In brief, the assay was performed in white, 96 well plates using final volume of 100 μl containing cells with different doses of compounds. Retrieve Reporter Cells from −80° C. storage. Perform a rapid thaw of the frozen cells by transferring a 10 ml volume of 37° C. cell recovery medium into the tube of frozen cells. Recap the tube of Reporter Cells and immediately place it in a 37° C. water bath for 5-10 minutes. Retrieve the tube of Reporter Cell Suspension from the water bath. Sanitize the outside surface of the tube with a 70% alcohol swab, and then transfer it into the cell culture hood. Dispense 90 μl of cell suspension into each well of the 96-well Assay Plate. Transfer the plate into 37° C. incubator, allowing the cells adherent to the bottom of the well. Dilute compounds in Dilution Plate (DP), and administrate to cells at Assay Plate (AP). DMSO content of the samples was kept at 0.2%. Cells were incubated for additional 22 hours before luciferase activities were measured. Thirty minutes before intending to quantify FXR activity, remove Detection Substrate and Detection Buffer from the refrigerator and place them in a low-light area so that they may equilibrate to room temperature. Remove the plate's lid and discard all media contents by ejecting it into an appropriate waste container. Gently tap the inverted plate onto a clean absorbent paper towel to remove residual droplets. Cells will remain tightly adhered to well bottoms. Add 100 μl of luciferase detection reagent to each well of the assay plate. Allow the assay plate to rest at room temperature for at least 5 minutes following the addition of LDR. Set the instrument (Envision) to perform a single 5 second “plate shake” prior to reading the first assay well. Read time may be 0.5 second (500 mSec) per well.

human FXR (NR1H4), sequence (Q96RI1 whole entry, the tested form may be a part): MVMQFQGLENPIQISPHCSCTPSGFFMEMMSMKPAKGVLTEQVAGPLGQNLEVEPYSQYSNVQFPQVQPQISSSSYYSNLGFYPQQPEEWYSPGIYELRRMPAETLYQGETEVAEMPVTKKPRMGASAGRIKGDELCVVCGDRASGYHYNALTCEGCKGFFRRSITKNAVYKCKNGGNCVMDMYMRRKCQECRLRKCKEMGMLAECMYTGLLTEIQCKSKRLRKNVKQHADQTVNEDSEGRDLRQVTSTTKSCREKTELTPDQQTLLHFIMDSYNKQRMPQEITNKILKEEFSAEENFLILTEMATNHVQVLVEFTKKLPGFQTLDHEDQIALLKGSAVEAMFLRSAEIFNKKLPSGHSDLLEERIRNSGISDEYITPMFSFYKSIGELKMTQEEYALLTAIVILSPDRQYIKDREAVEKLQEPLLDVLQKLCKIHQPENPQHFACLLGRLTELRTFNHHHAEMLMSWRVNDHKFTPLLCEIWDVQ

Row | EC50 | Efficacy (%) | SMILES
1 | 0.1 to 1 µM | 145% | CN(Cc1ccc(C(=O)NS(=O)(=O)C2CC2)cc1)c1ccc(OCc2c(-c3c(Cl)cccc3Cl)noc2C2CC2)nc1C(F)(F)F [Example 1]
2 | 1 to 10 µM | 108% | CN(Cc1ccc(C(=O)NS(=O)(=O)c2ccc(C(C)(C)C)cc2)cc1)c1ccc(OCc2c(-c3c(Cl)cccc3Cl)noc2C2CC2)nc1C(F)(F)F [Example 2]
3 | – | 153% | CN(Cc1ccc(C(=O)NS(=O)(=O)N(C)C)cc1)c1ccc(OCc2c(-c3c(Cl)cccc3Cl)noc2C2CC2)nc1C(F)(F)F [Example 3]

From US10138228B2, “Isoxazole derivatives as FXR agonists and methods of use therof” (Enanta Pharmaceuticals, Inc., priority 2016, dated 2018)
